In ChEMBL document CHEMBL5352386 (Eur J Med Chem, 2022):
The source made the active and inactive calls. The rule behind the calls is not given here.

Tests used:
Cholinesterase [1] = biological target: Cholinesterase (Equus caballus, UniProt P81908); test: Inhibition of equine serum BuChE using butyrylthiocholine iodide as substrate incubated for 10 mins followed by substrate addition by DTNB-reagent based Ellman's colorimetric assay
Cholinesterase [2] = biological target: T1, Cholinesterase (Homo sapiens, UniProt P06276); test: Inhibition of human BuChE using butyrylthiocholine iodide as substrate incubated for 10 mins followed by substrate addition by DTNB-reagent based Ellman's colorimetric assay
T1 sequence (P06276 whole entry): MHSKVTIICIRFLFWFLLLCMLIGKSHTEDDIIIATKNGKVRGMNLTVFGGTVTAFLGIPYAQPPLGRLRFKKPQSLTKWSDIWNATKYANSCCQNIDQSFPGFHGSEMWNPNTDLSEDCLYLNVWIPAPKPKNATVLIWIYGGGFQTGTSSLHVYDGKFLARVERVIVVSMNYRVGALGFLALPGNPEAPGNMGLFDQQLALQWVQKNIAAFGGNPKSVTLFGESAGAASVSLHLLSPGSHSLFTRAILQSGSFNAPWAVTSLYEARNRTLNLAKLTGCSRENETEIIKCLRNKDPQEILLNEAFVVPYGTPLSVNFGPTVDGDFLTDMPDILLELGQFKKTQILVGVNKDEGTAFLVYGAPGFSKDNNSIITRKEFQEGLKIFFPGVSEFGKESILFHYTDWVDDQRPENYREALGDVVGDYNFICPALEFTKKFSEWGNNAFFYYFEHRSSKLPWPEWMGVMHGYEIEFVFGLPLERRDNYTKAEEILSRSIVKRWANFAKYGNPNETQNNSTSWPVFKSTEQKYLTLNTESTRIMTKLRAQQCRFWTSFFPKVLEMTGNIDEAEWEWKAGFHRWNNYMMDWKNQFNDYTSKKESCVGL

PC-12 [3] = test: Cytotoxicity against rat PC12 cells assessed as survival rate at 100 uM measured after 24 hrs by MTT assay relative to control; conditions: PC-12, 24 h, read-out: Survival
SH-SY5Y [4] = test: Cytotoxicity against human SH-SY5Y cells assessed as survival rate at 2.5 uM measured after 24 hrs by MTT assay relative to control; format: functional; conditions: read-out: Survival
[5] = Cytotoxicity against mouse BV-2 cells assessed as survival rate at 100 uM measured after 24 hrs by MTT assay relative to control; format: toxicity, cell-based; conditions: read-out: Survival
L02 [6] = test: Cytotoxicity against human L02 cells assessed as survival rate at 100 uM measured after 24 hrs by MTT assay relative to control; format: functional; conditions: read-out: Survival
SH-SY5Y [7] = test: Cytotoxicity against human SH-SY5Y cells assessed as survival rate at 100 uM measured after 24 hrs by MTT assay relative to control; format: functional; conditions: read-out: Survival
[8] = Cytotoxicity against mouse BV-2 cells assessed as inhibition of cell growth measured after 24 hrs by MTT assay; format: toxicity, cell-based
L02 [9] = test: Cytotoxicity against human L02 cells assessed as inhibition of cell growth measured after 24 hrs by MTT assay; format: functional, cell-based; conditions: L02, 24 h
PC-12 [10] = test: Cytotoxicity against rat PC12 cells assessed as inhibition of cell growth measured after 24 hrs by MTT assay; format: functional, cell-based; conditions: PC-12, 24 h
[11] = Acute toxicity in overnight fasted female ICR mouse assessed as animal death at 1 g/Kg, IG administered as single dose measured upto 15 days; conditions: in vivo, po, 1000 mg/kg, 360 h, time < 15 day
SH-SY5Y [12] = test: Cytotoxicity against human SH-SY5Y cells assessed as inhibition of cell growth measured after 24 hrs by MTT assay; format: functional, cell-based
Cholinesterase [13] = biological target: T1, Cholinesterase; test: Binding affinity to human BChE assessed as dissociation constant by Surface Plasmon Resonance assay
[14] = Acute toxicity in overnight fasted male ICR mouse assessed as animal death at 1 g/Kg, IG administered as single dose measured upto 15 days; conditions: in vivo, po, 1000 mg/kg, 360 h, time < 15 day
[15] = Acute toxicity in overnight fasted male ICR mouse assessed as body weight loss at 1 g/Kg, IG administered as single dose measured upto 15 days; conditions: in vivo, po, 1000 mg/kg, 360 h, time < 15 day
[16] = Acute toxicity in overnight fasted female ICR mouse assessed as body weight loss at 1 g/Kg, IG administered as single dose measured upto 15 days; conditions: in vivo, po, 1000 mg/kg, 360 h, time < 15 day
[17] = Acute toxicity in overnight fasted male ICR mouse assessed as abnormal behavior at 1 g/Kg, IG administered as single dose measured upto 15 days; conditions: in vivo, po, 1000 mg/kg, 360 h, time < 15 day
[18] = Acute toxicity in overnight fasted female ICR mouse assessed as abnormal behavior at 1 g/Kg, IG administered as single dose measured upto 15 days; conditions: in vivo, po, 1000 mg/kg, 360 h, time < 15 day
[19] = Metabolic stability in human liver microsomes assessed as half life at 1 uM incubated upto 50 mins in presence of NADPH by LC/MS/MS analysis; format: ADME, Microsome
[20] = Metabolic stability in human liver microsomes assessed as parent compound remaining at 1 uM incubated upto 50 mins in presence of NADPH by LC/MS/MS analysis; format: ADME, Microsome; conditions: read-out: Stability
Mus musculus [21] = test: Neuroprotective activity against Abeta42 induced cognition impairement in AD mouse model assessed as reduction in latency time to platform at 10 mg/kg, po measured after 14 days by Morris water maze analysis; format: functional, organism-based; conditions: time 14.0 day
Mus musculus [22] = test: Neuroprotective activity against Abeta42 induced cognition impairement in AD mouse model assessed as reduction in confusion of escape trajectory at 10 mg/kg, po measured after 14 days; format: functional, organism-based; conditions: time 14.0 day
SH-SY5Y [23] = test: Neuroprotective activity against Abeta1-42 induced toxicity in human SH-SY5Y cells at 1 to 5 uM preincubated for 1 hr with compound followed by co-incubation with Abeta1-42 and measured after 24 hrs by MTT assay; format: functional, cell-based; conditions: dose 1-5 µM, time 25.0 hrs
SH-SY5Y [24] = test: Neuroprotective activity against glutamate induced toxicity in human SH-SY5Y cells at low concentration preincubated for 1 hr with compound followed by co-incubation with glutamate and measured after 24 hrs by MTT assay; format: functional, cell-based; conditions: time 25.0 hrs
SH-SY5Y [25] = test: Neuroprotective activity against glutamate induced toxicity in human SH-SY5Y cells assessed as effect on cell survival rate at 10 to 20 uM preincubated for 1 hr with compound followed by co-incubation with glutamate and measured after 24 hrs by MTT assay; format: functional, cell-based; conditions: dose 10-20 µM, time 25.0 hrs
PC-12 [26] = test: Cytoprotective activity against H2O2 induced cell damage in rat PC12 cells at 10 to 20 uM preincubated for 1 hr with compound followed by co-incubation with H2O2 and measured after 24 hrs by MTT assay; format: functional, cell-based; conditions: dose 10-20 µM, time 25.0 hrs
BV-2 = test: Induction of antioxidant effect in mouse BV-2 cells assessed as prevention of LPS-induced ROS production preincubated for 1 hr with compound followed by LPS stimulation and measured after 24 hrs by DCFH-DA staining based inverted fluorescence microscopy analysis; format: functional, cell-based; conditions: time 25.0 hrs
SH-SY5Y [27] = test: Induction of antioxidant effect in human SH-SY5Y cells assessed as prevention of Abeta1-42 induced ROS production preincubated for 1 hr with compound followed by Abeta1-42 stimulation and measured after 24 hrs by DCFH-DA staining based inverted fluorescence microscopy analysis; format: functional, cell-based; conditions: time 25.0 hrs

Cholinesterase (Equus caballus, UniProt P81908), sequence (P81908 whole entry): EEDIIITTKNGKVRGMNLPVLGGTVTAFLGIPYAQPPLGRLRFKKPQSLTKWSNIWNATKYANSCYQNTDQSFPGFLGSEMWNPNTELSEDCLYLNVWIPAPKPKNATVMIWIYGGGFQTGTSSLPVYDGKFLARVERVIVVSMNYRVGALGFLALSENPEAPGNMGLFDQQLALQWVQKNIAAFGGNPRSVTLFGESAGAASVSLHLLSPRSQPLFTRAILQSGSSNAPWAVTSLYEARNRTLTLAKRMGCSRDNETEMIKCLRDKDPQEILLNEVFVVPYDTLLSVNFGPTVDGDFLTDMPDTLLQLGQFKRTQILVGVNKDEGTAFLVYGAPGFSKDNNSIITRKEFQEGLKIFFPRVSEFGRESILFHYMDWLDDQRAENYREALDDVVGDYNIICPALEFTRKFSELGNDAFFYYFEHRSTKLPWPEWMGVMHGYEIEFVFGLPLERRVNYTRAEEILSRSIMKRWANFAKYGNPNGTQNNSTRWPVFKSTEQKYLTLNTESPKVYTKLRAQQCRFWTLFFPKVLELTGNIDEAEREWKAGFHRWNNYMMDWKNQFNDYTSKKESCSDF

| Structure (SMILES) | IC50 (Cholinesterase [1]) | IC50 (Cholinesterase [2]) | viability at 100 µM (PC-12 [3]) | viability at 2.5 µM (SH-SY5Y [4]) | viability at 24 h, 100 µM [5] | viability at 100 µM (L02 [6]) | IC50 at 24 h [8] | other results |
| --- | --- | --- | --- | --- | --- | --- | --- | --- |
| Cc1cc(Cl)cc(NC(=O)Cn2c(-c3nonc3N)nc3ccccc32)c1 | 9.16 nM | 101 nM | 54.3% | 32.1% | 56.3% | 65.9% | – | – |
| Nc1nonc1-c1nc2ccccc2n1CC(=O)Nc1ccc([N+](=O)[O-])c(Br)c1 | 33.7 nM | 730 nM | 51.4% | – | – | – | 5490 nM | viability at 100 µM (SH-SY5Y [7]): 70.5%; IC50 (L02 [9]): 5490 nM |
| Cc1cc(F)cc(NC(=O)Cn2c(-c3nonc3N)nc3ccccc32)c1 | 57.8 nM | 453 nM | 75.8% | 26.3% | 97.5% | 80% | – | – |
| Nc1nonc1-c1nc2ccccc2n1CC(=O)Nc1cc(F)cc(Br)c1 | 14.3 nM | 62.2 nM | 88.3% | 44.2% | 88.4% | 88.4% | – | – |
| Nc1nonc1-c1nc2ccccc2n1CC(=O)Nc1cc(Cl)cc(Br)c1 | 1.61 nM | 75.7 nM | – | 43.6% | 59.9% | 80.3% | – | IC50 (PC-12 [10]): 37800 nM |
| Nc1nonc1-c1nc2ccccc2n1CC(=O)Nc1cc([N+](=O)[O-])cc([N+](=O)[O-])c1 | 2.94 nM | 34.6 nM | 50.8% | – | – | 52.4% | 19200 nM | Activity [11]: Non-Toxic; IC50 (SH-SY5Y [12]): 72300 nM; Kd (Cholinesterase [13]): 3.09 nM; Activity (Cholinesterase [13]; dose 0.3125-40 nM): Dose-Dependent Effect; Activity [14]: Non-Toxic; Activity [15]: Non-Toxic; Activity [16]: Non-Toxic; Activity [17]: Non-Toxic; Activity [18]: Non-Toxic; half-life at 1 µM [19]: 11.5 h; remaining at 50 min, 1 µM [20]: 92.8%; Activity (Mus musculus [21]): Active; Activity (Mus musculus [22]): Active; Activity (SH-SY5Y [23]): Active; Activity (SH-SY5Y [24]): Active; Activity (SH-SY5Y [25]): Active; Activity (PC-12 [26]): Active; Activity (BV-2): Active; Activity (SH-SY5Y [27]): Active |
